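48-hour exposure; five concentrations; linearly interpolated endpoints. GI50 = concentration required for 50% inhibition of growth. TGI is the concentration that stops growth completely.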
Columns and labels:
Assay in all cases: NCI anticancer screen, dose series, 48 h
HS 578T breast = system: HS 578T breast
RPMI-8226 leukemia = system: RPMI-8226 leukemia
HCT-15 colon = system: HCT-15 colon
SN12C renal = system: SN12C renal
UACC-257 melanoma = system: UACC-257 melanoma
BT-549 breast = system: BT-549 breast
DU-145 prostate = system: DU-145 prostate
CCRF-CEM leukemia = system: CCRF-CEM leukemia
SK-OV-3 ovarian = system: SK-OV-3 ovarian
SF-539 CNS = system: SF-539 CNS
MOLT-4 leukemia = system: MOLT-4 leukemia
OVCAR-8 ovarian = system: OVCAR-8 ovarian
SK-MEL-2 melanoma = system: SK-MEL-2 melanoma
OVCAR-5 ovarian = system: OVCAR-5 ovarian
MDA-MB-231 breast = system: MDA-MB-231 breast
ACHN renal = system: ACHN renal
MCF7 breast = system: MCF7 breast
HOP-62 NSCLC = system: HOP-62 NSCLC
NCI-H460 lung = system: NCI-H460 lung
MDA-MB-435 = system: MDA-MB-435
CAKI-1 renal = system: CAKI-1 renal
M14 melanoma = system: M14 melanoma
HT29 colon = system: HT29 colon
LOX IMVI melanoma = system: LOX IMVI melanoma
SNB-75 CNS = system: SNB-75 CNS
786-0 renal = system: 786-0 renal
SR leukemia = system: SR leukemia
A549 NSCLC = system: A549 NSCLC

SMILES: CCCCCc1ccc(S(=O)(=O)Nc2cc(-c3csc(NC(=O)CN4CCN(C)CC4)n3)ccc2OC)cc1
- GI50 (HS 578T breast): 919 nM
- TGI (HS 578T breast): 2190 nM
- GI50 (RPMI-8226 leukemia): 925 nM
- TGI (RPMI-8226 leukemia): 2160 nM
- GI50 (HCT-15 colon): 976 nM
- TGI (HCT-15 colon): 2090 nM
- GI50 (SN12C renal): 1140 nM
- TGI (SN12C renal): 2770 nM
- GI50 (UACC-257 melanoma): 850 nM
- TGI (UACC-257 melanoma): 1640 nM
- GI50 (BT-549 breast): 2520 nM
- TGI (BT-549 breast): 11200 nM
- GI50 (DU-145 prostate): 1620 nM
- TGI (DU-145 prostate): 4960 nM
- GI50 (CCRF-CEM leukemia): 1240 nM
- TGI (CCRF-CEM leukemia): 3920 nM
- GI50 (SK-OV-3 ovarian): 5140 nM
- TGI (SK-OV-3 ovarian): 13000 nM
- GI50 (SF-539 CNS): 859 nM
- TGI (SF-539 CNS): 1610 nM
- GI50 (MOLT-4 leukemia): 1490 nM
- TGI (MOLT-4 leukemia): 4540 nM
- GI50 (OVCAR-8 ovarian): 1280 nM
- TGI (OVCAR-8 ovarian): 3650 nM
- GI50 (SK-MEL-2 melanoma): 867 nM
- TGI (SK-MEL-2 melanoma): 1650 nM
- GI50 (OVCAR-5 ovarian): 1540 nM
- TGI (OVCAR-5 ovarian): 5350 nM
- GI50 (MDA-MB-231 breast): 992 nM
- TGI (MDA-MB-231 breast): 2340 nM
- GI50 (ACHN renal): 957 nM
- TGI (ACHN renal): 1980 nM
- GI50 (MCF7 breast): 937 nM
- TGI (MCF7 breast): 1950 nM
- GI50 (HOP-62 NSCLC): 915 nM
- TGI (HOP-62 NSCLC): 1860 nM
- GI50 (NCI-H460 lung): 924 nM
- TGI (NCI-H460 lung): 1770 nM
- GI50 (MDA-MB-435): 878 nM
- TGI (MDA-MB-435): 1640 nM
- GI50 (CAKI-1 renal): 869 nM
- TGI (CAKI-1 renal): 1970 nM
- GI50 (M14 melanoma): 887 nM
- TGI (M14 melanoma): 1700 nM
- GI50 (HT29 colon): 871 nM
- TGI (HT29 colon): 1680 nM
- GI50 (LOX IMVI melanoma): 866 nM
- TGI (LOX IMVI melanoma): 1630 nM
- GI50 (SNB-75 CNS): 1070 nM
- TGI (SNB-75 CNS): 4470 nM
- GI50 (786-0 renal): 884 nM
- TGI (786-0 renal): 1640 nM
- GI50 (SR leukemia): 993 nM
- TGI (SR leukemia): 2620 nM
- GI50 (A549 NSCLC): 1430 nM
- TGI (A549 NSCLC): 5480 nM

Reference: PubChem BioAssay (NCI)
